Results reported in patent publication US20240216395A1, “19-NOR C3,3-DISUBSTITUTED C21 -N-PYRAZOLYL STEROID FOR USE IN TREATING MAJOR DEPRESSIVE DISORDER AND […]” (priority 2021, published 2024).

Legend:
[1] = test system: patients with MDD; assay: Phase 2 clinical trial of Compound (1) 30 mg in MDD (NCT03000530): TEAEs; type: in vivo, human
Source text: The study design and results, if applicable, of the clinical trials identified by the NCT numbers are each incorporated by reference herein in its entirety.
The majority of patients receiving Compound (1) and experiencing a TEAE reported TEAEs mild and moderate in severity: clinical trial of Example 4 94%, Phase 2 clinical trial conducted by Applicant 100%, previous Phase 3 clinical trial conducted by Applicant 98%, and clinical trial of Example 1 95.0%.

[2] = test system: nondependent, recreational users of CNS depressants; assay: Abuse potential main study, treatment phase: subjective VAS measures (Drug Liking, Overall Drug Liking, Take Drug Again, High, Good/Bad/Any Drug Effects, Alertness/Drowsiness, Drug Similarity)
[3] = Alprazolam 1.5 mg - Compound (1) 30 mg
[4] = Alprazolam 1.5 mg - Compound (1) 30 mg (relative abuse potential)
[5] = Alprazolam 1.5 mg - Compound (1) 60 mg
[6] = Alprazolam 1.5 mg - Compound (1) 60 mg (relative abuse potential)
[7] = Alprazolam 1.5 mg - Compound (1) 90 mg
[8] = Alprazolam 1.5 mg - Compound (1) 90 mg (relative abuse potential)
[9] = Alprazolam 3 mg - Compound (1) 30 mg
[10] = Alprazolam 3 mg - Compound (1) 30 mg (relative abuse potential)
[11] = Alprazolam 3 mg - Compound (1) 60 mg
[12] = Alprazolam 3 mg - Compound (1) 60 mg (relative abuse potential)
[13] = Alprazolam 3 mg - Compound (1) 90 mg
[14] = Alprazolam 3 mg - Compound (1) 90 mg (relative abuse potential)
[15] = Compound (1) 30 mg - placebo (absolute abuse potential)
[16] = Compound (1) 60 mg - placebo (absolute abuse potential)
[17] = Compound (1) 90 mg - placebo (absolute abuse potential)

Compound: C[C@@]1(O)CC[C@H]2[C@H](CC[C@@H]3[C@@H]2CC[C@]2(C)[C@@H](C(=O)Cn4cc(C#N)cn4)CC[C@@H]32)C1 [Compound (1), 1-(2-((3R,5R,8R,9R,10S,13S,14S,17S)-3-hydroxy-3,13-dimethylhexadecahydro-1H-cyclopenta[a]phenanthren-17-yl)-2-oxoethyl)-1H-pyrazole-4-carbonitrile]
- Diarrhea ([1]; 30 mg (N = 45)): 0 n (%)
- URTI ([1]; 30 mg (N = 45)): 0 n (%)
- Patients with a TEAE whose TEAEs were mild and moderate in severity ([1]; Phase 2 clinical trial): 100%
- Alert/Drowsiness VAS: time scores remained below neutral value of 50 ([2]; 30 mg): 6-7 hours postdose
- Alert/Drowsiness VAS: time scores remained below neutral value of 50 ([2]; 60 and 90 mg): 8-10 hours postdose
- Drug Liking Emax difference [2, 3]: 12.50
- Overall Drug Liking Emax difference [2, 3]: 13.92
- Take Drug Again Emax difference [2, 3]: 13.67
- Bad Drug Effects Emax difference [2, 4]: 0
- Good Drug Effects Emax difference [2, 4]: 24.62
- High Effects Emax difference [2, 4]: 24.59
- Drug Liking Emax difference [2, 5]: 2.00
- Overall Drug Liking Emax difference [2, 5]: 5.63
- Take Drug Again Emax difference [2, 5]: 0
- Bad Drug Effects Emax difference [2, 6]: 0
- Good Drug Effects Emax difference [2, 6]: 0.00
- High Effects Emax difference [2, 6]: 7.57
- Drug Liking Emax difference [2, 7]: −3.55
- Overall Drug Liking Emax difference [2, 7]: 1.12
- Take Drug Again Emax difference [2, 7]: 0
- Bad Drug Effects Emax difference [2, 8]: −12.93
- Good Drug Effects Emax difference [2, 8]: −12.00
- High Effects Emax difference [2, 8]: −12.00
- Drug Liking Emax difference [2, 9]: 14.00
- Overall Drug Liking Emax difference [2, 9]: 14.62
- Take Drug Again Emax difference [2, 9]: 16.43
- Bad Drug Effects Emax difference [2, 10]: 1.00
- Good Drug Effects Emax difference [2, 10]: 33.48
- High Effects Emax difference [2, 10]: 32.45
- Drug Liking Emax difference [2, 11]: 2.50
- Overall Drug Liking Emax difference [2, 11]: 6.33
- Take Drug Again Emax difference [2, 11]: 7.15
- Bad Drug Effects Emax difference [2, 12]: 1.00
- Good Drug Effects Emax difference [2, 12]: 7.50
- High Effects Emax difference [2, 12]: 15.42
- Drug Liking Emax difference [2, 13]: 0.00
- Overall Drug Liking Emax difference [2, 13]: 1.82
- Take Drug Again Emax difference [2, 13]: 0
- Bad Drug Effects Emax difference [2, 14]: −1.82
- Good Drug Effects Emax difference [2, 14]: −1.00
- High Effects Emax difference [2, 14]: −4.14
- Drug Liking Emax difference ([2]; Compound (1) 30 mg - placebo): 12.00
- Overall Drug Liking Emax difference ([2]; Compound (1) 30 mg - placebo): 6.50
- Take Drug Again Emax difference ([2]; Compound (1) 30 mg - placebo): 9.00
- Bad Drug Effects Emax difference [2, 15]: 0
- Good Drug Effects Emax difference [2, 15]: 19.98
- High Effects Emax difference [2, 15]: 19.21
- Drug Liking Emax difference ([2]; Compound (1) 60 mg - placebo): 18.12
- Overall Drug Liking Emax difference ([2]; Compound (1) 60 mg - placebo): 16.75
- Take Drug Again Emax difference ([2]; Compound (1) 60 mg - placebo): 18.57
- Bad Drug Effects Emax difference [2, 16]: 0
- Good Drug Effects Emax difference [2, 16]: 40.53
- High Effects Emax difference [2, 16]: 36.23
- Drug Similarity: Benzodiazepines Similarity median score ([2]; Compound (1) 90 mg): 92.5
- Drug Similarity: Opioids Similarity median score ([2]; Compound (1) 90 mg): 39.0
- Drug Liking Emax difference ([2]; Compound (1) 90 mg - placebo): 25.00
- Overall Drug Liking Emax difference ([2]; Compound (1) 90 mg - placebo): 21.27
- Take Drug Again Emax difference ([2]; Compound (1) 90 mg - placebo): 24.50
- Bad Drug Effects Emax difference [2, 17]: 0
- Good Drug Effects Emax difference [2, 17]: 59.00
- High Effects Emax difference [2, 17]: 55.80
- Drug Similarity: Placebo Similarity median score ([2]; all dosages, 12 hours postdose): zero
